How the values were obtained:
[1] = Pharmacokinetic (PK) analysis of terminal plasma and colon samples in DSS mice; type: in vivo; settings: 100 mg/kg QD PO
Procedure: (§1) Body weights, stool consistency and the presence of blood in the stool were measured over the 6 days and comprised the Disease Activity Index (DAI). On day 7 the study was terminated, and the colon and plasma were collected for cytokine measurements, histology evaluation and for pharmacokinetic (PK) analysis.

[2] = test system: DSS mouse model of ulcerative colitis; test: DSS mouse model of ulcerative colitis: Disease Activity Index, plasma and colon cytokines, colon histopathology; type: in vivo, mice; settings: for amount of crypt damage (colon histopathology) / colon IL-15 level increased by DSS / colon KC level increased by DSS / colon RANTES level increased by DSS / degree of inflammatory infiltrate (colon histopathology) / layer to which the infiltration extended (extent of infiltration, colon histopathology): colon collected day 7; for improvement (reduction) in the Disease Activity Index (DAI): mice given 2.5% DSS in drinking water for 6 days, NTX 1170 100 mg/kg QD PO, infliximab 5 mg/kg QD IP, tofacitinib 5 mg/kg BID PO
Procedure: as §1

[3] = plasma collected day 7, 2.5% DSS 6 days

| Compound | Kp ([1]; mouse, colon and plasma, terminal samples, read-out: colon/plasma ratio) | level of compound in the colon ([1]; terminal colon sample) | level of compound in the plasma ([1]; terminal plasma sample) | amount of crypt damage (colon histopathology) ([2]; 2.5% DSS 6 days) | colon IL-15 level increased by DSS ([2]; 2.5% DSS 6 days) | colon KC level increased by DSS ([2]; 2.5% DSS 6 days) | colon RANTES level increased by DSS ([2]; 2.5% DSS 6 days) | degree of inflammatory infiltrate (colon histopathology) ([2]; 2.5% DSS 6 days) | layer to which the infiltration extended (extent of infiltration, colon histopathology) ([2]; 2.5% DSS 6 days) | improvement (reduction) in the Disease Activity Index (DAI) [2] [%] | plasma G-CSF level upregulated by DSS [2, 3] | plasma IP-10 level upregulated by DSS [2, 3] | plasma MIG level upregulated by DSS [2, 3] | plasma Mip-1β level upregulated by DSS [2, 3] | plasma TNF-α level upregulated by DSS [2, 3] |
| --- | --- | --- | --- | --- | --- | --- | --- | --- | --- | --- | --- | --- | --- | --- | --- |
| Cc1cccc(C)c1NC(=O)C[N+]1(Cc2ccccc2)CCCCC1.[Br-] [NTX-1170] | > 3500 | high levels | very low levels | significantly reduced | significantly reduced | significantly reduced | significantly reduced | significantly reduced | significantly reduced | 60 | significantly reduced | significantly reduced | significantly reduced | significantly reduced | significantly reduced |
| C[C@@H]1CCN(C(=O)CC#N)C[C@@H]1N(C)c1ncnc2[nH]ccc12 [tofacitinib] |  |  |  |  | neither tofacitinib nor infliximab significantly reduced | neither tofacitinib nor infliximab significantly reduced | neither tofacitinib nor infliximab significantly reduced |  | reduced | 38 | significantly reduced |  | significantly reduced | significantly reduced | significantly reduced |
| infliximab |  |  |  | no significant effect | neither tofacitinib nor infliximab significantly reduced | neither tofacitinib nor infliximab significantly reduced | neither tofacitinib nor infliximab significantly reduced | no significant effect | no significant effect |  | reduced |  |  | reduced | reduced |
